Measured values: ChEMBL document CHEMBL1201862, “PubChem BioAssay data set” (2004)
Active and inactive are the calls of the source.

Key:
[1] = target: Beta-galactosidase (Escherichia coli, UniProt Q8VNN2); test: Dose response counterscreen for EBI2 assay utilizing the enzyme, b-galactosidase.; assay type: functional
[2] = alpha-synuclein stem-loop luciferase translation blockers – H4 neuroglioma cells, luminescence, confirmation (AID 1988); assay type: functional, cell-based
[3] = luciferase reporter signal suppression in cells – H4 neuroglioma cells, luminescence, dose response (AID 1990); assay type: functional, cell-based
[4] = target: Paired box protein Pax-8 (Homo sapiens, UniProt Q06710); test: PAX8 transcriptional activity inhibition in RMG-I – RMG-I cells, luciferase, cherry-pick, dose response (AID 687027); assay type: functional, cell-based;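 note: luciferase reporter driven by Pax8 target thyroperoxidase promoter measured by SteadyGlo luminescence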
[5] = target: T1, Ubiquitin-conjugating enzyme E2 N (Homo sapiens, UniProt P61088); assay type: functional;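 note: Dose-response confirmation in a TR-FRET assay detecting UBC13-driven polyubiquitin chain formation, inhibition measured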
T1 sequence (P61088 whole entry): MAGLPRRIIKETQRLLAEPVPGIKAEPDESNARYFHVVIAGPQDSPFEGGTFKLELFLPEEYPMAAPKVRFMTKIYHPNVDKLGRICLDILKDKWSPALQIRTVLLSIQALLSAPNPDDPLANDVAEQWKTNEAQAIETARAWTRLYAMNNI

[6] = Luminescence Cell-Based Dose Response HTS to Identify Inhibitors of 5'UTR Stem-Loop Driven Prion Protein mRNA Translation in H4 Neuroglioblastoma Cells. [Related pubchem assays: 1827 (Project Summary), 1813 (Primary HTS)]; assay type: functional
[7] = general cell-killing toxicity readout – plate reader, dry powder samples, cytotoxicity control for PAX8 inhibitor project, dose response (AID 743021); assay type: functional, cell-based
[8] = target: Disintegrin and metalloproteinase domain-containing protein 17 (Homo sapiens, UniProt P78536); test: inhibition of ADAM17 substrate cleavage – biochemical, quenched FRET substrate, counter-screen for ADAM10 exosite inhibitor project, dose response (AID 743253)
[9] = target: T2, Oxysterols receptor LXR-beta (Homo sapiens, UniProt P55055); assay type: functional, cell-based;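 note: agonist activity at LXR measured by a cell-based luminescence readout across a dose range, run as a counterscreen for daf-12 agonists; HEK293 cells with Gal4-LXR fusion and GAL4-driven luciferase reporter; potency for activation of Gal4-LXR reporter so compounds are agonists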
T2 sequence (P55055 whole entry): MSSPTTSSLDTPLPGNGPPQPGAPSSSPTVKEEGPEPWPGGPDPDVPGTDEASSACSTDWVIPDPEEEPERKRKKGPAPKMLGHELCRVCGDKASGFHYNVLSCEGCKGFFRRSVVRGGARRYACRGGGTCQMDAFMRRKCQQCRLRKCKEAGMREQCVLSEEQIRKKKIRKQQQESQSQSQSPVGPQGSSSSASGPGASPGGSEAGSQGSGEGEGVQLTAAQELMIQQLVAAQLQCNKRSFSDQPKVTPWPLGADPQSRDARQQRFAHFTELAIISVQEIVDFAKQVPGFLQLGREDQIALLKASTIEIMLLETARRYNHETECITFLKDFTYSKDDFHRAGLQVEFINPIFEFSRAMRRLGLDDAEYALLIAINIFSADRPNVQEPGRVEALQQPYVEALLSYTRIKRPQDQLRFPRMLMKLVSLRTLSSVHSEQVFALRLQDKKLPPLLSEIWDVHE

[10] = blockers of bursicon-stimulated LGR2 cAMP reporter – cell-based, HEK293, CRE-luciferase reporter, cherry pick, set 2, dose response (AID 743343); assay type: functional;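 note: transfected cells were stimulated with diluted bursicon conditioned medium after compound addition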
[11] = blockade of melanocortin 4 receptor signaling – cell-based, plate reader, cherry pick, counter-screen for LGR2 antagonist project, dose response (AID 743444); assay type: functional;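 note: transfected HEK 293 cells stimulated with alpha-MSH peptide; potency of inhibitors of the alpha-MSH evoked signal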
[12] = viability loss in HEK293 cells – cell-based, plate reader, cherry-picked samples, cytotoxicity control, dose response (AID 743446); assay type: functional
[13] = A549 cell cytotoxicity, dose response, cytotoxicity control, plate reader, cherry-pick, antagonist series (AID 743412); assay type: functional, cell-based
[14] = target: T3, Long-chain-fatty-acid--AMP ligase FadD28 (Mycobacterium tuberculosis, UniProt P9WQ59); test: Fluorescence polarization aasay to screen for inhibitors that compete for the binding of FadD28 to a bisubstrate Measured in Biochemical System Using Plate Reader - 2147-01_Inhibitor_Dose_CherryPick_Activity.; assay type: functional, Mycobacterium tuberculosis H37Rv
T3 sequence (P9WQ59 whole entry): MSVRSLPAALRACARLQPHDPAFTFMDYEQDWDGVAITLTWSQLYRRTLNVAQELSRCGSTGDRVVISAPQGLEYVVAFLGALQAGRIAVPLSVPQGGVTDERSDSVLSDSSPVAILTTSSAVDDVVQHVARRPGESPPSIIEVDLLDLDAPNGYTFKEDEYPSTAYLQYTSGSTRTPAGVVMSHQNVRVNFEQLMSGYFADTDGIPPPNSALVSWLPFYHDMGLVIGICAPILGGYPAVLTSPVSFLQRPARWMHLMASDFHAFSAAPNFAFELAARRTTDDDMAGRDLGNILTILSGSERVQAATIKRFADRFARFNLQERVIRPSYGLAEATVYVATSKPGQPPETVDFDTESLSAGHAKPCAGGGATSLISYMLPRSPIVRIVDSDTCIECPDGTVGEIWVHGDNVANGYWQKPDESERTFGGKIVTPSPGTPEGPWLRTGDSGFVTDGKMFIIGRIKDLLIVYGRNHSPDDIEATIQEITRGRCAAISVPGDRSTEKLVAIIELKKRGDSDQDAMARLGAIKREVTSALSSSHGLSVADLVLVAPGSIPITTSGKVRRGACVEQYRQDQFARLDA

[15] = system: INS1; test: INS-1E survival protection against cytokine death – cell-based, luminescence, retest, dose response (AID 449756); assay type: functional; conditions: Rattus norvegicus;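 note: cell death triggered by IL-1 beta plus TNF-alpha plus IFN-gamma mixture; protective hits raise ATP signal compared with cytokine alone wells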
[16] = loss of viability in HepG2 cells – cell-based, CellTiter-Glo, cherry-picked, cytotoxicity control for Shn3 inhibitor project, dose response (AID 624134); assay type: functional
[17] = Luminescence Cell-Based Dose Retest to Confirm Inhibitors of Cancer Stem Cells. [Related pubchem assays (depositor defined):AID2717, AID2721]; assay type: functional; conditions: Homo sapiens
[18] = non-specific 3'UTR reporter inhibition in Clone20-Shn3RL – cell-based, Renilla luciferase, cherry-picked, counter-screen for Shn3 inhibitor project, dose response (AID 624133); assay type: functional
[19] = target: T4, COUP transcription factor 2 (Homo sapiens, UniProt P24468); test: Luminescence-based cell-based high throughput dose response assay to identify inhibitors of COUP-TFII (NR2F2).; assay type: functional;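 note: HEK293 cells transiently cotransfected with COUP-TFII expression vector and reporter; luciferase reporter luminescence driven by COUP-TFII from the pX2-168 reporter plasmid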
T4 sequence (P24468 whole entry): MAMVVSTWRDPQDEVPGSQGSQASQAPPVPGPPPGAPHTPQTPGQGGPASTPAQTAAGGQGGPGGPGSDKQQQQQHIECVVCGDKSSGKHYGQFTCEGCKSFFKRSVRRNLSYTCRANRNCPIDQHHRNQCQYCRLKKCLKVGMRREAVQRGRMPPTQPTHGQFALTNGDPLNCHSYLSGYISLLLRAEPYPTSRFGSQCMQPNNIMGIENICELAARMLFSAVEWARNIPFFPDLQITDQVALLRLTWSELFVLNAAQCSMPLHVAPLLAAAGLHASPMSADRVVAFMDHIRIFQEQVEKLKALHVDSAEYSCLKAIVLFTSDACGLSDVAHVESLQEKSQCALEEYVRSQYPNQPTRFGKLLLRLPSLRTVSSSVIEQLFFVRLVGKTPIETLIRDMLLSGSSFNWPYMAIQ

[20] = reduction of Shn3 3'UTR-driven luciferase in osteoblasts – cell-based, Clone20 osteoblasts, firefly luciferase, cherry-picked, dose response (AID 624132); assay type: functional;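 note: firefly luciferase luminescence from reporter carrying the Shn3 3'UTR in osteoblasts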

Paired box protein Pax-8, sequence (Q06710 whole entry): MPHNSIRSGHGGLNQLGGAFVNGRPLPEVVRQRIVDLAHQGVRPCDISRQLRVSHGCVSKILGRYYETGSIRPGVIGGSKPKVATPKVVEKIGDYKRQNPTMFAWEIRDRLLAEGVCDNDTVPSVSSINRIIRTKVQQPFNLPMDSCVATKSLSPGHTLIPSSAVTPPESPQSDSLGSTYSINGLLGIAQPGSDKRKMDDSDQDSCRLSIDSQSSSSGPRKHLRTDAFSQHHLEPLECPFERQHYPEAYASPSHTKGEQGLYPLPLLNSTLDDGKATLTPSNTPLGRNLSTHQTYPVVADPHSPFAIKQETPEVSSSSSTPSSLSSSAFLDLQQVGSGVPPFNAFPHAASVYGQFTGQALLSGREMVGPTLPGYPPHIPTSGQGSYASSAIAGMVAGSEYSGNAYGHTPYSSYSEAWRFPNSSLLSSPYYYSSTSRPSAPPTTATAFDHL
Disintegrin and metalloproteinase domain-containing protein 17, sequence (P78536 whole entry, the tested form may be a part): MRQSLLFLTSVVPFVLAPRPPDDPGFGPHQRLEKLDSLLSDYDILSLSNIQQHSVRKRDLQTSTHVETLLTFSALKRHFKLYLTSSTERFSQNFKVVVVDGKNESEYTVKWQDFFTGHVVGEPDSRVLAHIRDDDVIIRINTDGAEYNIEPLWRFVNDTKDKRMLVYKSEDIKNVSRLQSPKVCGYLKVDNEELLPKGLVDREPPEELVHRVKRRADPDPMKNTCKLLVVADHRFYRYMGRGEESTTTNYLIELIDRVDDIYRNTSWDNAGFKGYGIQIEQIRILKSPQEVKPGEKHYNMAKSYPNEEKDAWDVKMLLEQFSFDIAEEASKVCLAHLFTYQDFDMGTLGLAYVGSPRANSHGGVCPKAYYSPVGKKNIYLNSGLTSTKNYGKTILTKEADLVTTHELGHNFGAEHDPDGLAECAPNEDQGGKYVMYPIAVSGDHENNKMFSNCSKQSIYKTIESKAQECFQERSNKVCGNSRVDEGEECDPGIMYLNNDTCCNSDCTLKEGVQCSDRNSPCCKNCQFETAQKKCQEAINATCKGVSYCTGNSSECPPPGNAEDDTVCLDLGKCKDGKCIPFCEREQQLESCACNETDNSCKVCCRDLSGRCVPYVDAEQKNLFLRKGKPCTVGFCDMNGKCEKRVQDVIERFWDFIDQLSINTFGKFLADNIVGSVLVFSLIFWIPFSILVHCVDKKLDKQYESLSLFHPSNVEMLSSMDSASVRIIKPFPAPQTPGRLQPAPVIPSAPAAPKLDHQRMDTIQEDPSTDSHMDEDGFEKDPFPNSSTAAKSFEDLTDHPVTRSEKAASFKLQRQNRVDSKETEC
Beta-galactosidase, sequence (Q8VNN2 whole entry): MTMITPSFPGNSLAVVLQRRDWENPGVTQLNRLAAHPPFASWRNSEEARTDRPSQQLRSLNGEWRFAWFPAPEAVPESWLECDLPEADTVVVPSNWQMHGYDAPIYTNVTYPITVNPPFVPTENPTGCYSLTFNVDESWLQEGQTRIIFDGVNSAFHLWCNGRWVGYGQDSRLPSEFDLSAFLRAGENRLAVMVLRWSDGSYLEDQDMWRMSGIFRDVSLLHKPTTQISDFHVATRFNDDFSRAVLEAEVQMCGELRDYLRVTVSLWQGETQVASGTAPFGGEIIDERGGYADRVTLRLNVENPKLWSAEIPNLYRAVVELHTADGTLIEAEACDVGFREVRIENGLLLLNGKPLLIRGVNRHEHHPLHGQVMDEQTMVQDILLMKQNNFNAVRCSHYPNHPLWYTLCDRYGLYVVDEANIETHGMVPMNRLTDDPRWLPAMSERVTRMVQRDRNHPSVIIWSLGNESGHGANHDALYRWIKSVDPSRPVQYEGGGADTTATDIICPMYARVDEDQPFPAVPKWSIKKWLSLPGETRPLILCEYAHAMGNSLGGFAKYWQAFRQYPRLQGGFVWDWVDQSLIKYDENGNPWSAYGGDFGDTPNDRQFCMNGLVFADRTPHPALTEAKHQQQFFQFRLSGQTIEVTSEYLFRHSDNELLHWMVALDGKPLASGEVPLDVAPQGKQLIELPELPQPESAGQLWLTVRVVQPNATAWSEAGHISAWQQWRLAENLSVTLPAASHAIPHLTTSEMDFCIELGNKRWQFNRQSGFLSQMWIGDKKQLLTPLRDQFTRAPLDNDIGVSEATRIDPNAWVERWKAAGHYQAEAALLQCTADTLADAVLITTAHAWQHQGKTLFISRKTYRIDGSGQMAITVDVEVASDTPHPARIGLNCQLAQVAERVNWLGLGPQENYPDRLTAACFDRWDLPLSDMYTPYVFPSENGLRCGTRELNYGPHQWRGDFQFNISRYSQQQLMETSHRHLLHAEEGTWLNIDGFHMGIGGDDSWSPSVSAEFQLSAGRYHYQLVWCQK

## Cc1occc1-c1nnc(SCC(=O)NCCc2ccccc2)n1Cc1ccccc1
[1]
  IC50: > 80 µM (inactive)

## CCC[C@H](CN[C@@H](CNC)[C@H](C)CC)NCCc1cc(C(F)(F)F)cc(C(F)(F)F)c1
[2]
  EC50: 7.09 µM (active)
[3]
  EC50: 8.3 µM (active)
[4]
  AC50: 9.95 µM (active)
[5]
  IC50: > 20 µM (inactive)
[6]
  EC50: 9.67 µM (active)
[7]
  AC50: 22.1 µM (active)

## COc1ccc(-c2ccc(-c3noc(-c4cccc(OC)c4)n3)c(OC)n2)cc1
[8]
  IC50: > 69.5 µM (inactive)

## CN(C)CCNc1ncnc2c1ncn2[C@H]1CN(Cc2cccnc2)C[C@@H](CO)O1
[9]
  EC50: > 67.5 µM (inactive)

## CC(=Nc1ccc(Cl)cc1N)c1c(O)cc(C)oc1=O
[9]
  EC50: > 67.6 µM (inactive)

## Cc1cccc(-c2ccc([C@H]3[C@@H](CO)N4CCCCN(C(=O)c5ccncc5)C[C@@H]34)cc2)c1
[10]
  AC50: 8.82 µM (active)
[11]
  AC50: 9.6 µM (active)
[12]
  AC50: > 52 µM (inactive)
[13]
  AC50: > 52 µM (inactive)

## O=C(N/N=C/c1c[nH]c2ccccc12)c1cc(Cl)ccc1O
[14]
  AC50: 9.8 µM (active)

## Oc1ccc(CCNc2ncnc3ccc(Cl)cc23)cc1
[15]
  AC50: 3.73 µM (active)
[16]
  AC50: 43 µM (active)
[17]
  AC50: 1.57 µM (active)
[18]
  AC50: 942 nM (active)
[19]
  IC50: 5.5 µM (active)
[20]
  AC50: 551 nM (active)
